Assay results: patent US20260007688A1, “SYNTHETIC ANALOGS OF CANNABINOL (CBN) FOR THE TREATMENT OF AGERELATED NEUROLOGICAL DISORDERS” (priority 2023, published 2026)
Where two headings read alike, the source gives them in different places.

Test system: HT22 cells
Assay type: cell-based, mouse
Text: A series of fragment chemicals with different variants of the substructures were assembled and screened in a cell-based phenotypic screening assays in the context of oxytosis/ferroptosis (FIG. 1). Specifically, for the left unit (LU), monoterpenoids with different functional groups and/or double-bond substitutions as well as ring arrangements were screened. For the central unit (CU), benzene rings with different hydroxyl group substitutions were screened. For the right unit (RU), different lengths, with or without branches, of the aliphatic hydrocarbon chains were examined.
CBN, CBD and THC were used as reference compounds.
(§1) Briefly, HT22 cells were seeded at 3,000 cells/well in 96-well tissue culture plates in DMEM plus 10% FBS and 1% antibiotics. After 24 hours of plating, the cells were pretreated with different concentrations of the test compounds or a vehicle control for 1 hour followed by coincubation with 5 mM glutamate to initiate the cell death cascade. After 16 hours of treatment, cell viability was measured by the 3-(4,5-dimethylthiazol-2-yl)-2,5-diphenyltetrazolium bromide (MTT) assay. Optical absorbance was measured at 570 nm on a SpectraMax M5 microplate reader. Samples were analyzed in eight to sixteen wells per independent experiment (n=8-16).
as §1, with “The assay procedure described in Fischer et al. was used. Briefly,” for “Briefly,”, “of” for “of the”, “50-100 nM RSL3 or 500 nM erastin” for “5 mM glutamate”, “induce” for “initiate”, “MTT” for “3-(4,5-dimethylthiazol-2-yl)-2,5-diphenyltetrazolium bromide (MTT)”

| SMILES | neuroprotective activity against oxytosis/ferroptosis (1-50 μM, glutamate and RSL3) | neuroprotective activity against oxytosis/ferroptosis (10-50 μM, glutamate and RSL3) | other results |
| --- | --- | --- | --- |
| Oc1cc(O)cc(O)c1 [phloroglucinol] | limited neuroprotective activity | – | – |
| CCCCCCCCCCCCCCCc1cc(O)cc(O)c1 [5-pentadecylresorcinol] | no further improvement in neuroprotective activity | – | – |
| Oc1ccc(O)cc1 [hydroquinone] | – | – | neuroprotective activity against oxytosis/ferroptosis: weak neuroprotective activities |
| Oc1ccccc1O [catechol] | – | weak neuroprotective activities | – |
| CCCCCCC(C)(C)c1cc(O)cc(O)c1 [5-(1,1-dimethylheptyl) resorcinol] | – | – | neuroprotection (1 μM): > 50% |
| CCCCCCc1ccc(O)cc1O [4-hexylresorcinol, 4-hexylbenzene-1,3-diol] | – | good to excellent neuroprotective activity | – |
| Oc1cccc(O)c1O [pyrogallol] | limited neuroprotective activity | – | – |
| Oc1cccc(O)c1 [resorcinol] | limited neuroprotective activity | – | – |
| CC(C)(C)c1cc(O)ccc1O [2-tert-butylbenzene-1,4-diol] | – | good to excellent neuroprotective activity | – |
| CCCCCc1cc(O)cc(O)c1 [olivetol, 5-pentyl-1,3-benzenediol] | – | good to excellent neuroprotective activity | – |
| Oc1ccc(O)c(O)c1 [hydroxyquinol] | limited neuroprotective activity | – | – |
| Oc1ccccc1 [phenol] | – | – | neuroprotective activity against oxytosis/ferroptosis: limited neuroprotective activity |
| CCCCc1ccc(O)c(O)c1 [4-butylbenzene-1,2-diol] | – | good to excellent neuroprotective activity | – |
